The values below come from paper PMC4192288 (Endocrinology, 2013).

The target of this assay is T1, 11β-hydroxysteroid dehydrogenase type 1 (11β-HSD1) (Mus musculus, UniProt P50172).
T1 construct: gene Hsd11b1; recombinant 11β-HSD1
The experiment in a line: HTRF cortisol competitive assay with recombinant […]β-HSD1; also […] ex vivo inhibition in mouse liver. Format: biochemical. On the technique in general: TR-FRET usually uses a lanthanide donor and a delayed reading to cut background.

For orientation: IC50 means the concentration needed to halve the response being measured.

T1 sequence (P50172 whole entry): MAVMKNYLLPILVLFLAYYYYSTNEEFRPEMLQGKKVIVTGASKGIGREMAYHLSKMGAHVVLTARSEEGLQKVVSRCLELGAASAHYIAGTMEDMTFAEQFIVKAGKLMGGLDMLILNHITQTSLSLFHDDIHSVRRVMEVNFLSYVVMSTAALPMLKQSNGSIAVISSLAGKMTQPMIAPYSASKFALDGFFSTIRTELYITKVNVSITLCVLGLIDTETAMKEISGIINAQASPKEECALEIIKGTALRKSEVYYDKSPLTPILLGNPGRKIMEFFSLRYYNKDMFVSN

On to `F[C@H]1C[C@](c2ccc(Cl)cc2)(c2nnc(C3CC3)n2C2CC2)C1` [MK-0916, 3-[1-(4-chlorophenyl)-3-fluorocyclobutyl]-4,5-dicyclopropyl-1,2,4-triazole], for which the IC50 came out at 30 nM.
